{"source": "patent US20090176744A1", "about": "“Deuterated fingolimod” (CoNCERT Pharmaceuticals, Inc., priority 2007, published 2009)", "origin": "cited, not measured here", "key": {"[1]": {"conditions": "renal transplant patients; reversible upon cessation of treatment (Tedesco-Silva 2004)"}, "[2]": {"conditions": "general finding of cited clinical studies (Kahan 2003; Budde 2002; Ferguson 2003)"}}, "data": [{"smiles": "CCCCCCCCc1ccc(CCC(N)(CO)CO)cc1.Cl", "note": "[fingolimod, 2-amino-2-[2-(4-octylphenyl)ethyl]-1,3-propanediol hydrochloride]", "values": [{"measurement": "heart rate", "setting": "[1]", "result": "mild and transient reduction in heart rate"}, {"measurement": "safety and tolerability", "setting": "[2]", "result": "safe and well-tolerated"}]}]}
